Measurements published in patent US20220227709A1, “COMPOSITIONS AND METHODS FOR TREATING SCHISTOSOMA INFECTIONS” (THE BOARD OF REGENTS OF THE UNIVERSITY OF TEXAS SYSTEM, priority 2019, published 2022).

Tests used:
[1] = test system: S. mansoni adult schistosomes; experiment: Schistosomiasis screening, adult worm killing (S. mansoni); type: cell-based, Schistosoma mansoni; conditions: for Kill % S. m: adult worms, final concentration 143 μM, 45 minutes incubation, washed, cultured 10-14 days, read day 14
Excerpt: (§1) Schistosomiasis screening methods Strains of S. mansoni, S. haematobium, and S. japonicum were maintained by passage through species-specific snail intermediate hosts (Biomphlaria glabrata, Bulinus truncatus, and Oncomelania hupensis, respectively) and Golden Syrian Hamsters as a definitive host. Definitive host animals were sacrificed in accordance with IACUC protocol (UTHSCSA IACUC Protocol #08039) by intraperitoneal injection using Fatal-Plus (Butler Animal Health, Ohio), a sodium pentobarbital solution, with 10% heparin added. The adult parasites were obtained by perfusion as previously described using 0.9% saline containing EDTA.^1 Derivatives were solubilized in DMSO and diluted to working concentration of 50 mM and added directly to each well of a 24-well plate within 2-24 hours after harvesting adult schistosomes from the hamsters at a final concentration of 143 μM. Each analog was tested in triplicate. DMSO, oxamniquine (OXA, the parent drug known to kill only S. mansoni), or Hycanthone (HC, a carcinogen known to kill S. mansoni and S. haematobium) were used as controls as needed. Drugs were incubated with the worms at 37° C., 5% CO2 for 45 minutes, mimicking physiological conditions. The worms were washed with plain media 3 times to remove any residual derivatives. Worms were then incubated in culture media as previously described for a period of 10-14 days. On day 14, the assay gives % worms alive as an efficacy data point. For comparison, Oxaminiquine scores 50% alive in this assay.

[2] = test system: S. haematobium adult schistosomes; experiment: Schistosomiasis screening, adult worm killing (S. haematobium); type: cell-based, Schistosoma haematobium; conditions: adult worms, final concentration 143 μM, 45 minutes incubation, washed, cultured 10-14 days, read day 14
Excerpt: as §1

[3] = test system: S. japonicum adult schistosomes; experiment: Schistosomiasis screening, adult worm killing (S. japonicum); type: cell-based, Schistosoma japonicum; conditions: adult worms, final concentration 143 μM, 45 minutes incubation, washed, cultured 10-14 days, read day 14
Excerpt: as §1

Row | SMILES | Kill % S. m [1] | other results
1 | OCC(O)COc1ccccc1C1CCCC1 (stereo not shown) [CIDD-0150607] | 50% | 
2 | CCCS(=O)(=O)OCC [CIDD-0150333] | 20% | 
3 | Oc1cccc2c1ccc1c(F)c3ccccc3cc12 [CIDD-0150240] | 20% | 
4 | O=[N+]([O-])c1ccc2c(O)cc3cccc4ccc1c2c43 [CIDD-0150329] | 40% | 
5 | CC(=O)Nc1cnc(COC(N)=O)n1C [CIDD-0150332] | 17% | 
6 | O=S([O-])([O-])=S.O=S([O-])([O-])=S.[Ag+].[Na+].[Na+].[Na+] [CIDD-0150303] | 100% | Kill % S. h [2]: 40%; Kill % S. j [3]: 100%
7 | CC(=O)OC(C)N(N=O)C1CC1 (stereo not shown) [CIDD-0150327] | 3.3% | 
8 | Cc1nc(SC[C@H](N)C(=O)O)c(N)n1C [CIDD-0150331] | 10% | 
9 | Nc1c2ccccc2nc2c(C(=O)NCCNCCO)cccc12 [CIDD-0150236] | 43% | 
10 | CC(C)NCC1CCc2cc(CO)c([N+](=O)[O-])cc2N1 (stereo not shown) [Oxaminiquine, oxamniquine, reference compound] |  | % worms alive ([1]; day 14, control drug for comparison, species not given): 50%
11 | Cc1c2ccccc2nc2c(C(=O)NCCN(C)C)cccc12 [CIDD-0150237] | 33% | 
12 | Cn1c([N+](=O)[O-])nc2c3ccccc3ccc21 [CIDD-0150605] | 13% | 
13 | O[C@@H]1c2ccccc2-c2cc3ccccc3c(F)c2[C@H]1O [CIDD-0150242] | 56% | 
14 | O=[N+]([O-])c1cc(NCC2(Cc3cccc(C(F)(F)F)c3)CCN(Cc3c[nH]c4ccccc34)C2)ccc1CO (stereo not shown) [CIDD-0149830, (4-(((1-((1H-indol-3-yl)methyl)-3-(3-(trifluoromethyl)benzyl)pyrrolidin-3-yl)methyl)amino)-2-nitrophenyl)methanol] | 100% | Kill % S. h [2]: 100%; Kill % S. j [3]: 100%
15 | O=[N+]([O-])c1ccc2cc(O)c3cccc4ccc1c2c43 [CIDD-0150330] | 10% | 
16 | CCCCCS(=O)(=O)OCC [CIDD-0150334] | 47% | 
17 | Cc1c[nH]c2c1C13CC1CN(S(C)(=O)=O)C3=CC2=O (stereo not shown) [CIDD-0150241] | 33% | 
18 | O=C(O)CCCn1c2ccccc2c(=O)c2ccccc21 [CIDD-0150302] | 80% | Kill % S. h [2]: 20%; Kill % S. j [3]: 40%
19 | O=Nc1ccc2ccc3cc4ccccc4c4ccc1c2c34 [CIDD-0150608] | 93.3% | Kill % S. h [2]: 71.4%
20 | C[C@@H](O)[C@H]1C(=O)N2C(C(=O)O)=C(S[C@@H]3CN[C@H](C(=O)Nc4cccc(C(=O)O)c4)C3)[C@H](C)[C@H]12 [CIDD-0150610] | 100% | Kill % S. h [2]: 100%; Kill % S. j [3]: 100%
21 | C=CCN(N=O)C(C)OC(C)=O (stereo not shown) [CIDD-0150326] | 3.3% | 
22 | c1cc2ccc3c4ccc5cccc(c(c1)c23)c54 [CIDD-0150609] | 16.6% | 
23 | CCN(CC)CCNC(=O)c1cccc2c(N)c3ccccc3nc12 [CIDD-0150239] | 36% | 
24 | CN(C)CCCNC(=O)c1cccc2c(N)c3ccccc3nc12 [CIDD-0150238] | 6% | 
25 | O=[N+]([O-])c1ccc2c3c1ccc1cccc(c13)[C@@H](O)[C@H]2O [CIDD-0150328] | 16% | 
26 | CN(C)CCNC(=O)c1cccc2c(N)c3cc(Cl)ccc3nc12 [CIDD-0150235] | 60% | 
27 | Cn1c([N+](=O)[O-])nc2ccc3ccccc3c21 [CIDD-0150606] | 100% | Kill % S. h [2]: 85.7%
